System: cell lines derived from mouse pancreatic β-cells
Test: Insulin secretion into the culture medium measured by ELISA
Assay type: cell-based
Conditions: low- and high-glucose Ringer's solutions; 1 μg/mL or 10 μg/mL (any concentration); stimulated for 30 minutes
Experimental: Low- and high-glucose Ringer's solutions in the presence of 10 μg/mL pentadecanoic acid triglyceride were added in vitro to cell lines derived from mouse pancreatic β-cells. The cells were then stimulated for 30 minutes.
Separately, as a control, ethanol at concentration of 0.1% (v/v) were added to the cells.
Insulin secreted into the culture medium was measured by ELISA.
Low- and high-glucose Ringer's solutions in the presence of 1 μg/mL or 10 μg/mL pentadecanoic acid (PA in the Figure) were added in vitro to cell lines derived from mouse pancreatic β-cells. The cells were then stimulated for 30 minutes.

`CCCCCCCCCCCCCCC(=O)O` [pentadecanoic acid] was tested, and the “effect on insulin secretion” value was “no effect”.
